Measurements reported in patent US9113629B2, “4-amino-6-(4-substituted-phenyl)-picolinates and 6-amino-2-(4-substituted-phenyl)-pyrimidine-4-carboxylates and their use as herbicides” (DOW AGROSCIENCES LLC, priority 2013, dated 2015).
Where two headings read alike, the source gives them in different places.

Assays:
[1] = test system: HORSS: barley, including spring and winter (Hordeum vulgare); test: Post-emergent Test III, herbicidal activity in wheat and barley; type: in vivo; conditions: for pest or weed control at 35 g/ha / pest or weed control at 70 g/ha: Hordeum vulgare, post-emergence, 504 h; for pest or weed control at 35 g/ha: 35 g ai/ha; for pest or weed control at 70 g/ha: 70 g ai/ha; for GR20 HORSS: probit analysis
Method: (§1) Post-emergent Test III. Seeds of the desired test plant species were planted in Sun Gro MetroMix® 306 planting mixture, which typically has a pH of 6.0 to 6.8 and an organic matter content of about 30 percent, in plastic pots with a surface area of 103.2 square centimeters (cm^2). When required to ensure good germination and healthy plants, a fungicide treatment and/or other chemical or physical treatment was applied. The plants were grown for 7-36 days (d) in a greenhouse with an approximate 14 hour (h) photoperiod which was maintained at about 18° C. during the day and 17° C. during the night. Nutrients and water were added on a regular basis and supplemental lighting was provided with overhead metal halide 1000-Watt lamps as necessary. The plants were employed for testing when they reached the second or third true leaf stage.
(§2) A weighed amount, determined by the highest rate to be tested, of each test compound was placed in a 25 mL glass vial and was dissolved in 4 mL of a 97:3 v/v mixture of acetone and DMSO to obtain concentrated stock solutions. […] The concentrated stock solutions obtained were diluted with 20 mL of an aqueous mixture containing acetone, water, isopropyl alcohol, DMSO, Agri-Dex crop oil concentrate, and X-77 surfactant in a 48:39:10:1.5:1.5:0.02 v/v ratio to obtain spray solutions containing the highest application rates. Additional application rates were obtained by serial dilution of 12 mL of the high rate solution into a solution containing 2 mL of 97:3 v/v mixture of acetone and DMSO and 10 mL of an aqueous mixture containing acetone, water, isopropyl alcohol, DMSO, Agri-Dex crop oil concentrate, and X-77 surfactant in a 48:39:10:1.5:1.5:0.02 v/v ratio to obtain ½×, ¼×, ⅛× and 1/16× rates of the high rate. Compound requirements are based upon a 12 mL application volume at a rate of 187 liters per hectare (L/ha). Formulated compounds were applied to the plant material with an overhead Mandel track sprayer equipped with 8002E nozzles calibrated to deliver 187 L/ha over an application area of 0.503 square meters at a spray height of 18 inches (43 cm) above the average plant canopy height. Control plants were sprayed in the same manner with the solvent blank.
(§3) The treated plants and control plants were placed in a greenhouse as described above and watered by subirrigation to prevent wash-off of the test compounds. After 21 d, the condition of the test plants as compared with that of the untreated plants was determined visually and scored on a scale of 0 to 100 percent where 0 corresponds to no injury and 100 corresponds to complete kill.
(§4) By applying the well-accepted probit analysis as described by J. Berkson in Journal of the American Statistical Society, 48, 565 (1953) and by D. Finney in “Probit Analysis” Cambridge University Press (1952), herbicidal injury of a specific compound at various rates can be used to calculate GR20, GR50, GR80 and GR90 values, which are defined as growth reduction factors that correspond to the effective dose of herbicide required to provide plant growth reduction (GR) of 20 percent, 50 percent, 80 percent and 90 percent, respectively. Probit analysis was applied to data collected from multiple dose rates of individual compounds utilizing the procedures explained in the following examples. The analysis of those dose rates is captured in the following tables.

[2] = test system: KCHSC: kochia (Kochia scoparia); test: as above; type: in vivo; conditions: for pest or weed control at 35 g/ha / pest or weed control at 70 g/ha: Bassia scoparia, post-emergence, 504 h; for pest or weed control at 35 g/ha: 35 g ai/ha; for pest or weed control at 70 g/ha: 70 g ai/ha; for GR50 KCHSC: dose for 50 percent growth reduction; for GR50 KCHSC / GR80 KCHSC: probit analysis; for GR80 KCHSC: dose for 80 percent growth reduction
Method: as §1, §2, §3, §4

[3] = test system: LAMSS; test: as above; type: in vivo; conditions: Table 8, 21 d; for GR50 LAMSS: dose for 50 percent growth reduction; for GR50 LAMSS / GR80 LAMSS: probit analysis; for GR80 LAMSS: dose for 80 percent growth reduction; for pest or weed control at 35 g/ha / pest or weed control at 70 g/ha: post-emergence, 504 h, post-emergent, read-out: Visual Growth Reduction (%) 21 Days After Application LAMSS; for pest or weed control at 35 g/ha: 35 g ai/ha; for pest or weed control at 70 g/ha: 70 g ai/ha
Method: as §1, §2, §3, §4

[4] = test system: MATSS: scented mayweed (Matricaria chamomilla), pineappleweed (Matricaria matricarioides); test: as above; type: in vivo; conditions: for pest or weed control at 35 g/ha / pest or weed control at 70 g/ha: Matricaria chamomilla, post-emergence, 504 h; for pest or weed control at 35 g/ha: 35 g ai/ha; for pest or weed control at 70 g/ha: 70 g ai/ha; for GR50 MATSS: dose for 50 percent growth reduction; for GR50 MATSS / GR80 MATSS: probit analysis; for GR80 MATSS: dose for 80 percent growth reduction
Method: as §1, §2, §3, §4

[5] = test system: TRZSS: wheat, including spring and winter (Triticum aestivum); test: as above; type: in vivo; conditions: for GR20 TRZSS: probit analysis; for pest or weed control at 35 g/ha / pest or weed control at 70 g/ha: Triticum aestivum, post-emergence, 504 h; for pest or weed control at 35 g/ha: 35 g ai/ha; for pest or weed control at 70 g/ha: 70 g ai/ha
Method: as §1, §2, §3, §4

[6] = Table 8, post-emergent, 21 d, read-out: Visual Growth Reduction (%) 21 Days After Application HORSS
[7] = Table 8, dose for 20 percent growth reduction, 21 d
[8] = Table 8, post-emergent, 21 d, read-out: Visual Growth Reduction (%) 21 Days After Application KCHSC
[9] = Table 8, post-emergent, 21 d, read-out: Visual Growth Reduction (%) 21 Days After Application MATSS
[10] = Table 8, post-emergent, 21 d, read-out: Visual Growth Reduction (%) 21 Days After Application TRZSS
[11] = 21 days after application, read-out: Visual Gorowth Reduction (%) 21 days After Application HORSS
[12] = dose for 20 percent growth reduction (crop), 21 days after application
[13] = 21 days after application, read-out: Visual Gorowth Reduction (%) 21 days After Application KCHSC
[14] = 21 days after application, read-out: Visual Gorowth Reduction (%) 21 days After Application MATSS
[15] = 21 days after application, read-out: Visual Gorowth Reduction (%) 21 days After Application TRZSS

SMILES	pest or weed control at 35 g/ha [1, 6] [%]	pest or weed control at 70 g/ha [1, 6] [%]	GR20 HORSS [1, 7] [g ai/ha]	pest or weed control at 35 g/ha [2, 8] [%]	pest or weed control at 70 g/ha [2, 8] [%]	GR50 KCHSC ([2]; Table 8, 21 d) [g ai/ha]	GR80 KCHSC ([2]; Table 8, 21 d) [g ai/ha]	GR50 LAMSS [3] [g ai/ha]	GR80 LAMSS [3] [g ai/ha]	pest or weed control at 35 g/ha [3] [%]	pest or weed control at 70 g/ha [3] [%]	pest or weed control at 35 g/ha [4, 9] [%]	pest or weed control at 70 g/ha [4, 9] [%]	GR50 MATSS ([4]; Table 8, 21 d) [g ai/ha]	GR80 MATSS ([4]; Table 8, 21 d) [g ai/ha]	GR20 TRZSS [5, 7] [g ai/ha]	pest or weed control at 35 g/ha [5, 10] [%]	pest or weed control at 70 g/ha [5, 10] [%]	pest or weed control at 35 g/ha [1, 11] [%]	pest or weed control at 70 g/ha [1, 11] [%]	further results
COC(=O)c1nc(-c2ccc(I)c(F)c2)nc(N)c1OC [Compound 27, Methyl 6-amino-2-(3-fluoro-4-iodophenyl)-5-methoxypyrimidine-4-carboxylate]	30 to 44	45 to 59	11	75 to 84	75 to 84	18	61	1	14	85 to 94	85 to 94	30 to 44	30 to 44	109	>140	11	60 to 74	75 to 84	–	–	–
COc1c(N)nc(-c2ccc(I)c(F)c2)nc1C(=O)O [Compound 37, 6-Amino-2-(3-fluoro-4-iodophenyl)-5-methoxypyrimidine-4-carboxylic acid]	60 to 74	75 to 84	5	45 to 59	60 to 74	34	119	1	11	85 to 94	95 to 100	60 to 74	60 to 74	21	77	3	75 to 84	85 to 94	–	–	–
Nc1c(Cl)c(C(=O)O)nc(-c2ccc(Br)c(F)c2)c1Cl [Compound 43, 4-Amino-6-(4-bromo-3-fluorophenyl)-3,5-dichloropicolinic acid]	95 to 100	95 to 100	1	60 to 74	85 to 94	11	41	1	10	85 to 94	85 to 94	85 to 94	95 to 100	3	7	1	85 to 94	95 to 100	–	–	–
Nc1c(F)c(-c2cc(F)c(I)cc2F)nc(C(=O)O)c1Cl [Compound 69]	–	–	–	–	–	–	–	–	–	–	–	–	–	–	–	–	–	–	85 to 94	95 to 100	GR20 HORSS [1, 12]: 1 g ai/ha; pest or weed control at 35 g/ha [2, 13]: 85 to 94%; pest or weed control at 70 g/ha [2, 13]: 85 to 94%; GR50 KCHSC ([2]; 21 days after application): 5 g ai/ha; GR80 KCHSC ([2]; 21 days after application): 19 g ai/ha; pest or weed control at 35 g/ha [4, 14]: 75 to 84%; pest or weed control at 70 g/ha [4, 14]: 85 to 94%; GR50 MATSS ([4]; 21 days after application): 5 g ai/ha; GR80 MATSS ([4]; 21 days after application): 29 g ai/ha; pest or weed control at 35 g/ha [5, 15]: 85 to 94%; pest or weed control at 70 g/ha [5, 15]: 85 to 94%; GR20 TRZSS [5, 12]: 1 g ai/ha; melting point: 159 to 161 °C
C=Cc1c(C(=O)O)nc(-c2ccc(C(F)(F)F)c(F)c2)c(F)c1N [Compound 86]	–	–	–	–	–	–	–	–	–	–	–	–	–	–	–	–	–	–	30 to 44	30 to 44	GR20 HORSS [1, 12]: 14 g ai/ha; pest or weed control at 35 g/ha [2, 13]: 75 to 84%; pest or weed control at 70 g/ha [2, 13]: 75 to 84%; GR50 KCHSC ([2]; 21 days after application): 12 g ai/ha; GR80 KCHSC ([2]; 21 days after application): 55 g ai/ha; pest or weed control at 35 g/ha [4, 14]: 60 to 74%; pest or weed control at 70 g/ha [4, 14]: 60 to 74%; GR50 MATSS ([4]; 21 days after application): 22 g ai/ha; GR80 MATSS ([4]; 21 days after application): 85 g ai/ha; pest or weed control at 35 g/ha [5, 15]: 60 to 74%; pest or weed control at 70 g/ha [5, 15]: 60 to 74%; GR20 TRZSS [5, 12]: 1 g ai/ha; melting point: 120 to 122 °C
